Test results: publication PMC12748266, “Testing antimicrobial peptides inhibiting protein synthesis in living E. coli and K. pneumoniae using bio-orthogonal non-canonical amino-acid tagging” (Frontiers in Microbiology, 2025)
≈ marks a conversion by molar mass, not a printed value. No end group written: not given here.

What was measured:
[1] = tested on: E. coli ATCC 25922; assay: BONCAT: HPG incorporation into newly synthesized proteins, flow cytometry; format: cell-based, Escherichia coli; conditions: compound at MIC; for Fluorescence Intensity (% of Control): 10 min pre-incubation then 30 min HPG, untreated = 100%, mean, n ≥ 3; for Decrease in fluorescence compared to untreated bacteria: 40 min total incubation (10 min + 30 min HPG)
Method: We used a modified protocol from [Lindivat et al. (2020)]. Briefly, overnight cultures of E. coli ATCC 25922 or K. pneumoniae ATCC 700603, prepared as described above, were diluted to a final concentration of 5×10^6 CFU/mL and allowed to adjust for 30 min at 37 °C. The culture was then incubated at 37 °C in the dark for 10 or 30 min in the presence or absence of each peptide or antibiotic at various concentrations, with a final volume of 1 mL. At this point, only in certain specified experimental assays, the compounds were removed from the supernatant by centrifugation (16,000 × g for 5 min) and bacteria were washed and resuspended in fresh supplemented M9 medium. Then, 32 μL of a 500 μM homopropargylglycine (HPG) solution were added to each sample, resulting in a final concentration of 16 μM in a finale volume of 1 mL. Also included in each assay were two untreated controls containing only bacteria and bacteria treated with 16 μM HPG alone, respectively. All samples were then incubated at 37 °C in the dark for 30 min. After incubation, samples were washed once with 1X filtered Phosphate Buffered Saline (PBS) (centrifuged at 16,000 x g for 5 min) and resuspended in PBS. After washing, samples were fixed with formaldehyde (Sigma Aldrich, USA) to a final concentration of 3% in 1 mL for 1 h at 25 °C. Subsequently, the samples were centrifuged at 16,000 x g for 5 min and resuspended in 1 mL of PBS. If not analysed immediately, the fixed samples were stored at 4 °C prior to performing the click chemistry reaction. Samples were centrifugated at 16,000 x g for 5 min and bacteria cells were dehydrated by ethanol that was added sequentially to achieve a final concentration of 50% (v/v) (3 min of incubation), 80% (v/v) (3 min of incubation), and 95% (v/v) (3 min of incubation). After dehydration, the samples were centrifugated (16,000 × g, 5 min) and resuspended in PBS. For cell analysis by SDS-PAGE, the following variations were implemented: bacterial cells were diluted in supplemented M9 medium to a final density of ~ 1 × 10^9 CFU/mL, and HPG was added to the samples at a final concentration of 160 μM. Bacteria were incubated with HPG for 0, 15, 30, 60, or 120 min at 37 °C in the dark.
The click reaction was carried out according to [Rostovtsev et al. (2002)]. 15 μL of a pre-mix solution (prepared as described above) were added to each sample containing fixed bacteria that had incorporated HPG (30 μL of pre-mix solution in case of samples prepared for SDS-PAGE analysis), resulting in the following final concentrations in each sample: 0.1 mM copper sulfate, 0.5 mM Tris (3-hydroxypropyltriazolylmethyl)amine (THPTA), and 2.5 μM Alexa Fluor azide 488. Additionally, 50 μL of freshly prepared 100 mM sodium ascorbate and 50 μL of 100 mM aminoguanidine were added (100 μL in case of samples prepared for SDS-PAGE analysis), bringing the final volume to 1 mL. The samples were gently inverted once to mix and incubated for 30 min in the dark at 25 °C. Finally, each sample was washed with PBS once (centrifuged at 16,000 × g for 5 min) and resuspended in 1 mL PBS.
An overnight culture of E. coli ATCC 25922, or of K. pneumoniae ATCC 700603, prepared as described above, was diluted to a final concentration of 5 × 10^6 CFU/mL and allowed to adjust for 30 min at 37 °C under shaking. Membrane permeabilization of bacteria was then assessed by incubating bacteria at 37 °C, in a final volume of 1 mL, with varying concentrations of each peptide or antibiotic used for the BONCAT assay. 5 min before the ending of the selected incubation time (40 min), propidium iodide probe was added to the samples to a final concentration of 10 μg/mL before analysis using a flow cytometer. A positive control consisted of E. coli cells dehydrated with ethanol (as described above), while untreated cells were used as negative control. The fluorescence of untreated cells was used to establish the gating for positive PI-stained cells. […]

[2] = tested on: K. pneumoniae ATCC 700603; assay: Cell membrane permeabilization, propidium iodide flow cytometry; format: cell-based, Klebsiella pneumoniae; conditions: compound at its MIC, 40 min, 5 × 10^6 CFU/mL, supplemented M9; mean of n = 3
Method: An overnight culture of E. coli ATCC 25922, or of K. pneumoniae ATCC 700603, prepared as described above, was diluted to a final concentration of 5 × 10^6 CFU/mL and allowed to adjust for 30 min at 37 °C under shaking. Membrane permeabilization of bacteria was then assessed by incubating bacteria at 37 °C, in a final volume of 1 mL, with varying concentrations of each peptide or antibiotic used for the BONCAT assay. 5 min before the ending of the selected incubation time (40 min), propidium iodide probe was added to the samples to a final concentration of 10 μg/mL before analysis using a flow cytometer. A positive control consisted of E. coli cells dehydrated with ethanol (as described above), while untreated cells were used as negative control. The fluorescence of untreated cells was used to establish the gating for positive PI-stained cells. Fixed bacterial cells, subjected to the click chemistry reaction to link the Alexa Fluor azide 488 probe, were analysed by flow cytometry and, among the gates-selected ones, only those that tested positive for Propidium Iodide, and thus permeabilized, were considered for the calculation of the mean fluorescence intensity (MFI) of the Alexa Fluor azide 488.
Samples were analyzed by an Attune NxT® (ThermoFisher) equipped with a blue laser (488 nm) and photomultiplier tubes (PMTs) BL1 (525/50) and BL3 (695/40) to collect fluorescence. All parameters were set in logarithmic scale and the signals were recorded as Area. Forward scattering (FSC) was set to 300 mV, side scattering (SSC) to 350 mV and thresholds to 0.2 for FSC and 0.5 for SSC. The compensation matrix was performed according to the tool software. Hierarchical gates and acquisition flow rate (200 μL/min) were set to avoid coincident events. The files were saved as FCS 3.1 and analysed by FCS Express De Novo software v7. Flow cytometry data are presented as means ± SD from three independent experiments (n = 3).

[3] = tested on: K. pneumoniae ATCC 700603; assay: microbe, parasite or virus in culture; format: cell-based, Klebsiella pneumoniae; conditions: for MIC: 18 h, 37 °C, mode of at least three experiments; for MIC for K. pneumoniae relative to E. coli: supplemented M9, 5 × 10^6 cells/mL
Method: […] […] Serially two-fold dilution (1:1) were performed across subsequent wells to a final volume of 50 μL. […] […] The plates were sealed with parafilm to minimize evaporation and incubated at 37 °C for 18 h. The minimum inhibitory concentration (MIC) was visually determined as the lowest peptide concentration in a well with no visible bacterial growth. Data are reported as the mode of at least three independent experiments.

Row | Compound | Fluorescence Intensity (% of Control) [1] | Decrease in fluorescence compared to untreated bacteria [1] | Membrane permeabilization (% PI +cells) [2] | MIC ([3]; Klebsiella pneumoniae, ATCC700603, supplemented M9 medium, 5 × 10^6 CFU/mL, visual) | MIC ([3]; Mueller Hinton, 2,5x10^5 CFU/mL) | MIC for K. pneumoniae relative to E. coli [3] | MIC ([3]; supplemented M9 medium, 5 × 10^6 CFU/mL, visual)
1 | O=C(N[C@H](CO)[C@H](O)c1ccc([N+](=O)[O-])cc1)C(Cl)Cl [CHL, Chloramphenicol] | 20 % of Control | 80% |  |  |  |  | 
2 | CO[C@H]1/C=C/O[C@@]2(C)Oc3c(C)c(O)c4c(O)c(c(/C=N/N5CCN(C)CC5)c(O)c4c3C2=O)NC(=O)/C(C)=C\C=C\[C@H](C)[C@H](O)[C@@H](C)[C@@H](O)[C@@H](C)[C@H](OC(C)=O)[C@@H]1C [RIF, Rifampicin] | 102 % of Control | did not affect fluorescence intensity | <1% | 16 µM (≈ 13.2 µg/mL) |  |  | 
3 | RRIRPRPPRLPRPRPR [Bac7(1–16)] | 18 % of Control |  | <1% |  | 4 µM | 4 fold | 4 µM
4 | RRIRPRPPRLPRPRPRPLPFPRPGPRPIPRPLPFP [Bac7(1–35)] | 14 % of Control |  | <1% |  |  | 4 fold | 
